# Data from ChEMBL document CHEMBL1145868, “Small, low nanomolar, noncovalent thrombin inhibitors lacking a group to fill the 'distal binding pocket'” (Bioorg Med Chem Lett, 2003).
# How the values were obtained:
# Homo sapiens [1] = organism: Homo sapiens; experiment: Concentration required to double the human activated partial thromboplastin time in human plasma; type: functional
# Prothrombin = Prothrombin (Homo sapiens, UniProt P00734); experiment: Inhibition of thrombin in human plasma; type: cell-free
# Trypsin = Trypsin (Homo sapiens, UniProt P07477+P07478+P35030); experiment: Inhibition of trypsin in human plasma; type: cell-free
# Homo sapiens [2] = organism: Homo sapiens; experiment: Protein binding affinity in human plasma, expressed as percent unbound (free); type: functional
Ki (Prothrombin) [nM],Ki (Trypsin) [nM],Unbound (Homo sapiens [2]) [%],SMILES,Concentration (Homo sapiens [1]) [µM]
8.5,10000,–,CCNC(=O)COc1ccc(Cl)cc1CNC(=O)Cn1c(C)cc(C(F)(F)F)c(N)c1=O,2.1
–,23000,15,CCNC(=O)COc1ccc(Cl)cc1CNC(=O)[C@@H]1CCCN1C(=O)[C@H](N)C1CCCCC1,0.41
–,29000,4,N[C@@H](C(=O)N1CCC[C@H]1C(=O)NCc1cc(Cl)ccc1Cl)C1CCCCC1,0.95
24,100000,–,Cc1ccc(NS(=O)(=O)Cc2ccccc2)c(=O)n1CC(=O)NCc1cc(Cl)ccc1Cl,2.7
–,> 100000,–,Cc1cc(C(F)(F)F)c(N)c(=O)n1CC(=O)NCc1cc(Cl)ccc1OCC(=O)N(C)C,–
12,7200,20,CCNC(=O)COc1ccc(Cl)cc1CNC(=O)Cn1c(C)cnc(N)c1=O,1.6
340,20000,–,Cc1nc(N)ccc1CNC(=O)Cn1c(C)cc(C(F)(F)F)c(N)c1=O,–
15,7100,–,CNC(=O)COc1ccc(Cl)cc1CNC(=O)Cn1c(C)cc(C(F)(F)F)c(N)c1=O,2.5
0.07,1000,1,CCNC(=O)COc1ccc(Cl)cc1CNC(=O)Cn1c(C)cnc(NCCc2ccccc2)c1=O,1.2
900,23000,–,Cc1nc(N)ccc1CNC(=O)Cn1c(C)cnc(N)c1=O,–
–,1800,6,Cc1nc(N)ccc1CNC(=O)Cn1c(C)cnc(NCCc2ccccc2)c1=O [L-375378],0.41
7,20000,–,Cc1ccc(NS(=O)(=O)Cc2ccccc2)c(=O)n1CC(=O)NCc1cccc(Cl)c1,2.8
18,14000,–,Cc1cc(C(F)(F)F)c(N)c(=O)n1CC(=O)NCc1cc(Cl)ccc1OCC(=O)NCCN(C)C,1.3

SMILES,Ki (Prothrombin) [nM],Ki (Trypsin) [nM],Unbound (Homo sapiens [2]) [%],Concentration (Homo sapiens [1]) [µM]
Cc1cc(C(F)(F)F)c(N)c(=O)n1CC(=O)NCc1cc(Cl)ccc1OCC(=O)NCCCN(C)C,7.4,11000,18,0.7
CCNC(=O)COc1ccc(Cl)cc1CNC(=O)Cn1c(C)ccc(NS(=O)(=O)Cc2ccccc2)c1=O,0.04,2000,–,0.79
